Reference: PubChem BioAssay (NCI)
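These data come from cells grown in 96-well plates and exposed to compound for 48 hours at five concentrations. Abbreviation: GI50, concentration required for 50% inhibition of growth. At the TGI there is no net growth.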

How the values were obtained:
Assay in all cases: DTP human tumour cell line panel, 48 h
SNB-75 CNS = system: SNB-75 CNS
SK-MEL-28 melanoma = system: SK-MEL-28 melanoma
SNB-19 CNS = system: SNB-19 CNS
RPMI-8226 leukemia = system: RPMI-8226 leukemia
RXF 393 renal = system: RXF 393 renal
KM12 colon = system: KM12 colon
SF-295 CNS = system: SF-295 CNS
MOLT-4 leukemia = system: MOLT-4 leukemia
ACHN renal = system: ACHN renal
T-47D breast = system: T-47D breast

Row | Structure (SMILES) | TGI (SNB-75 CNS) [µM] | TGI (SK-MEL-28 melanoma) [µM] | TGI (SNB-19 CNS) [µM] | TGI (RPMI-8226 leukemia) [µM] | TGI (RXF 393 renal) [µM] | TGI (KM12 colon) [µM] | TGI (SF-295 CNS) [µM] | TGI (MOLT-4 leukemia) [µM] | TGI (ACHN renal) [µM] | GI50 (T-47D breast) [µM] | TGI (T-47D breast) [µM] | GI50 (SNB-19 CNS) [µM] | GI50 (RPMI-8226 leukemia) [µM] | GI50 (RXF 393 renal) [µM] | GI50 (KM12 colon) [µM] | GI50 (SF-295 CNS) [µM] | GI50 (MOLT-4 leukemia) [µM] | GI50 (SNB-75 CNS) [µM] | GI50 (SK-MEL-28 melanoma) [µM] | GI50 (ACHN renal) [µM]
1 | O=C1OC(c2ccccc2)C2CC3CC4(CCC3CN12)OCCO4 (stereo not drawn) | > 100 | > 100 | > 100 | > 100 | > 100 | > 100 | > 100 | > 100 | – | – | – | – | – | – | – | – | – | – | – | –
2 | O=c1oc2c3ccc4ccccc4c3n(CCN3CCOCC3)c2c2ccccc12 | > 100 | > 100 | > 100 | > 100 | – | > 100 | > 100 | 18.5 | > 100 | – | – | – | – | – | – | – | – | – | – | –
3 | CN(C)CCCNC(=O)c1cc(NC(=O)CCNC(=O)c2ccc3c(c2)C(=O)c2ccccc2C3=O)cn1C | – | – | > 100 | > 100 | > 100 | > 100 | > 100 | > 100 | – | 32.5 | 75.3 | > 100 | 48 | > 100 | 40.8 | > 100 | 37.4 | – | – | –
4 | Cc1cc(Cl)ccc1NC(=O)/C(Cl)=C(/Cl)C(=O)O | > 100 | 41 | > 100 | 70.5 | 36.3 | 82.8 | > 100 | – | 36.1 | – | 57.2 | – | – | – | – | – | – | – | – | –
5 | COc1ccc(CN2C(=O)C(Cc3cc(OC)c(OC)c(C)c3OC)N(C(=O)OC(C)C)C(=O)/C2=C/c2cc(OC)c(OC)c(C)c2OC)cc1 (stereo not drawn) | > 100 | > 100 | > 100 | > 100 | > 100 | > 100 | > 100 | > 100 | > 100 | – | – | – | – | – | – | – | – | – | – | –
6 | CN(C)c1ccccc1CC(c1c[nH]c2ccccc12)c1c[nH]c2ccccc12 | 22 | – | 27.8 | – | 20.2 | 14.5 | 24.4 | 21.7 | 20.6 | – | – | – | – | – | – | – | – | – | – | –
7 | COc1ccc(NC(=O)CC/C(CC(=O)c2ccccc2Cl)=N\Nc2nnc(C)n2N)cc1 | – | > 100 | > 100 | – | > 100 | > 100 | > 100 | > 100 | > 100 | – | – | – | – | – | – | – | – | – | – | –
8 | COCC1C(=O)c2cc3c(cc2C12C=CC1(C=C2)OCCO1)OCO3 (stereo not drawn) | 28.9 | 28.1 | – | 4.1 | 20.9 | 18.2 | 27.9 | 9.6 | 25.3 | – | – | – | – | – | – | – | – | – | – | –
9 | Cc1cc(C)nc(NS(=O)(=O)c2ccc(NC(=O)c3cccc4c(Nc5ccc(S(=O)(=O)Nc6nc(C)cc(C)n6)cc5)c5ccccc5nc34)cc2)n1 | 35.5 | 46 | 82.4 | 61.8 | 31.5 | 44.3 | 51.5 | 62.8 | 49.8 | – | – | – | – | – | – | – | – | – | – | –
10 | Nc1nc(=O)n(C2CC(O)C(O)C(CO)O2)cc1F (stereo not drawn) | > 100 | > 100 | > 100 | > 100 | > 100 | – | > 100 | > 100 | > 100 | – | – | – | – | – | – | – | – | – | – | –
11 | COc1ccc(C(=O)/C(=N/Nc2ccccc2)c2ccc(OC)cc2)cc1 | > 100 | > 100 | > 100 | > 100 | > 100 | > 100 | > 100 | > 100 | > 100 | – | – | – | – | – | – | – | – | – | – | –
12 | CCCCCCCCCCCCOC1C(CNC(=O)C2OC3OC(C)(C)OC3C2NC(=O)CN2CCN(c3ccccn3)CC2)OC2OC(C)(C)OC21 (stereo not drawn) | 6.77 | 7.47 | 7.99 | – | 2.74 | 4.43 | 3.48 | 4.45 | 3.21 | 2.81 | 8.61 | 2.96 | – | 1.36 | 2.16 | 1.77 | 1.86 | 2.31 | 2.53 | 1.77
13 | CC1(C)Cc2cccc(OCC(O)CN3CCN(c4ccc(F)cc4)CC3)c2O1 (stereo not drawn) | 34.2 | > 50 | > 50 | 26.2 | 22.6 | > 50 | 39.9 | > 50 | 25 | – | – | 31.7 | 9.18 | 8.33 | 15.3 | 8.83 | 20.2 | 10.9 | 19.1 | 9.65
14 | N#Cc1ccc(/C=N\N2C(=O)c3ccccc3C2=O)cc1 | > 100 | > 100 | > 100 | > 100 | > 100 | > 100 | > 100 | > 100 | > 100 | – | – | – | – | – | – | – | – | – | – | –
15 | O=C(c1ccccn1)c1nnn2ccccc12 | > 100 | > 100 | > 100 | > 100 | – | > 100 | > 100 | > 100 | > 100 | – | > 100 | – | – | – | – | – | – | – | – | –
16 | [N-]=[N+]=Nc1ccccc1-[n+]1noc([O-])c1Br | > 100 | > 100 | > 100 | > 100 | > 100 | > 100 | > 100 | > 100 | > 100 | – | – | – | – | – | – | – | – | – | – | –
17 | COC1OCC(OS(=O)(=O)c2ccc(C)cc2)C(OC(=O)c2ccccc2)C1OC(=O)c1ccccc1 (stereo not drawn) | 4.65 | > 100 | > 100 | – | > 100 | > 100 | > 100 | – | > 100 | 3.11 | > 100 | 9.97 | – | 4.62 | 4.04 | 3.63 | – | 1.78 | 4.62 | 8.83
18 | O=C(c1ccccc1)c1ccc(Cl)c([N+](=O)[O-])c1 | 18.9 | 19 | 30.2 | 21.9 | – | 18.9 | 34.5 | 22.3 | 21.3 | 7.54 | 38.6 | 16 | 3.64 | – | 5.97 | 17.8 | 4.17 | 4.74 | 5.59 | 7.14
19 | COc1ccc2nc3cc(Cl)ccc3c(NCCC(=O)OCC(O)C(O)C(O[C@H](C)C(=O)NC(C)C(=O)NC(CCC(N)=O)C(=O)OCc3ccccc3)C(C=O)NC(C)=O)c2c1 (stereo partly drawn) | 31.7 | 32.1 | 62.1 | – | – | 41.7 | 34.3 | 44.2 | 32.2 | – | – | – | – | – | – | – | – | – | – | –
20 | Cn1c(=O)nc2n(-c3ccc(F)cc3)c3ccccc3nc-2c1=O | 91.6 | – | 37.4 | 70.9 | 79.8 | > 100 | 40.8 | 62.8 | 49.7 | – | – | – | – | – | – | – | – | – | – | –
